The subject of the assay is L1210 leukemia ip in BDF1 mice, survival T/C. The assay is described as follows: NCI In Vivo Anticancer Drug Screen. Data for tumor model L1210 Leukemia (intraperitoneal) in B6D2F1 (BDF1) mice. Particulars: endpoint: mean survival time, higher = longer survival. The method, boiled down:
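Transplantable tumor model; survival measured in treated vs vehicle control mice. Value = treated/control.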

Where [1] appears, read: dose: 100.0 mg/kg/injection, schedule: Q04DX002 (ip), vehicle: saline with Tween-80.
Where [2] appears, read: dose: 200.0 mg/kg/injection, schedule: Q04DX002 (ip), vehicle: saline with Tween-80.
[3] abbreviates: dose: 100.0 mg/kg/injection, schedule: Q01DX001 (ip), vehicle: Klucel (hydroxypropylcellulose) (HPC).
[4] abbreviates: dose: 100.0 mg/kg/injection, schedule: Q01DX009 (ip), vehicle: Klucel (hydroxypropylcellulose) (HPC).
The mark [5] stands for this setting: dose: 100.0 mg/kg/injection, schedule: Q04DX003 (ip), vehicle: Klucel (hydroxypropylcellulose) (HPC).
The mark [6] stands for this setting: dose: 200.0 mg/kg/injection, schedule: Q01DX001 (ip), vehicle: Klucel (hydroxypropylcellulose) (HPC).
Where [7] appears, read: dose: 200.0 mg/kg/injection, schedule: Q01DX009 (ip), vehicle: Klucel (hydroxypropylcellulose) (HPC).
The mark [8] stands for this setting: dose: 200.0 mg/kg/injection, schedule: Q04DX003 (ip), vehicle: Klucel (hydroxypropylcellulose) (HPC).
Setting [9] is: dose: 400.0 mg/kg/injection, schedule: Q01DX001 (ip), vehicle: Klucel (hydroxypropylcellulose) (HPC).
The mark [10] stands for this setting: dose: 400.0 mg/kg/injection, schedule: Q01DX009 (ip), vehicle: Klucel (hydroxypropylcellulose) (HPC).
Setting [11] is: dose: 400.0 mg/kg/injection, schedule: Q04DX003 (ip), vehicle: Klucel (hydroxypropylcellulose) (HPC).
Setting [12] is: dose: 100.0 mg/kg/injection, schedule: Q04DX003 (ip), vehicle: saline with Tween-80.
Where [13] appears, read: dose: 200.0 mg/kg/injection, schedule: Q04DX003 (ip), vehicle: saline with Tween-80.
[14] abbreviates: dose: 400.0 mg/kg/injection, schedule: Q04DX003 (ip), vehicle: saline with Tween-80.
The mark [15] stands for this setting: dose: 50.0 mg/kg/injection, schedule: Q01DX009 (ip), vehicle: saline with Tween-80.
Setting [16] is: dose: 100.0 mg/kg/injection, schedule: Q01DX009 (ip), vehicle: saline with Tween-80.
The mark [17] stands for this setting: dose: 200.0 mg/kg/injection, schedule: Q01DX009 (ip), vehicle: saline with Tween-80.
Where [18] appears, read: dose: 400.0 mg/kg/injection, schedule: Q01DX009 (ip), vehicle: saline with Tween-80.
Setting [19] is: dose: 100.0 mg/kg/injection, schedule: Q04DX002 (ip), vehicle: Klucel (hydroxypropylcellulose) (HPC).
Setting [20] is: dose: 200.0 mg/kg/injection, schedule: Q04DX002 (ip), vehicle: Klucel (hydroxypropylcellulose) (HPC).
Where [21] appears, read: dose: 400.0 mg/kg/injection, schedule: Q04DX002 (ip), vehicle: Klucel (hydroxypropylcellulose) (HPC).
The mark [22] stands for this setting: dose: 100.0 mg/kg/injection, schedule: Q04DX003 (ip), vehicle: saline.
Where [23] appears, read: dose: 200.0 mg/kg/injection, schedule: Q04DX003 (ip), vehicle: saline.
Setting [24] is: dose: 400.0 mg/kg/injection, schedule: Q04DX003 (ip), vehicle: saline.
Where [25] appears, read: dose: 100.0 mg/kg/injection, schedule: Q01DX001 (ip), vehicle: saline with Tween-80.
Setting [26] is: dose: 200.0 mg/kg/injection, schedule: Q01DX001 (ip), vehicle: saline with Tween-80.
The mark [27] stands for this setting: dose: 400.0 mg/kg/injection, schedule: Q01DX001 (ip), vehicle: saline with Tween-80.

Data on 22 compounds can be found in PubChem BioAssay AID248 (DTP/NCI, 2004).

Values joined by “and” are separate entries in the source; they are usually repeats but may differ in a detail not shown here. Equal entries are not always repeated. Inconclusive results and toxic doses are left out.

In the case of `O=C(O)CC1NCc2cc3ccccc3nc21` (stereo not drawn), the T/C (dose: 10.0 mg/kg/injection, schedule: Q04DX003 (ip), vehicle: alcohol) is 94 % of control; the T/C (dose: 20.0 mg/kg/injection, schedule: Q04DX003 (ip), vehicle: alcohol) was 99 % of control; the T/C (dose: 40.0 mg/kg/injection, schedule: Q04DX003 (ip), vehicle: alcohol) is 105 % of control; the T/C (dose: 80.0 mg/kg/injection, schedule: Q04DX003 (ip), vehicle: alcohol) is 99 % of control; the T/C (dose: 160.0 mg/kg/injection, schedule: Q04DX003 (ip), vehicle: alcohol) was 97 % of control.
For the compound `Cc1ccc(C(O)C(=O)O)c(C)c1` (stereo not drawn), the T/C was 101 % of control under setting [1] and 89 % of control under setting [2].
Consider `S=C(Nc1ccc(Cl)c(Cl)c1)SCc1ccco1`, for which the T/C reads like this: (dose: 30.0 mg/kg/injection, schedule: Q04DX003 (ip), vehicle: saline with Tween-80) 101 % of control; (dose: 60.0 mg/kg/injection, schedule: Q04DX003 (ip), vehicle: saline with Tween-80) 101 % of control; (dose: 120.0 mg/kg/injection, schedule: Q04DX003 (ip), vehicle: saline with Tween-80) 101 % of control.
For the compound `O=[N+]([O-])c1ccc(O)c(C2N(Cc3ccc(N(CCCl)CCCl)cc3)CCCN2Cc2ccc(N(CCCl)CCCl)cc2)c1`, the T/C by setting is: (dose: 50.0 mg/kg/injection, schedule: Q01DX001 (ip), vehicle: carboxymethylcellulose (CMC)) 109 % of control; under setting [3], 93 % of control; (dose: 100.0 mg/kg/injection, schedule: Q01DX001 (ip), vehicle: carboxymethylcellulose (CMC)) 109 % of control; under setting [4], 93 % of control; under setting [5], 103 % of control; under setting [6], 95 % of control. For the same compound, the T/C reads like this: (dose: 200.0 mg/kg/injection, schedule: Q01DX001 (ip), vehicle: carboxymethylcellulose (CMC)) 118 % of control; under setting [7], 98 % of control; under setting [8], 97 % of control; under setting [9], 95 % of control; under setting [10], 94 % of control; under setting [11], 95 % of control.
For `Cc1cc(C(=O)O)c(C)cc1C(=O)O`, the T/C is, setting by setting: under setting [12], 98 % of control; under setting [13], 93 % of control; under setting [14], 98 % of control.
`COC(OC)c1cc(=O)[nH]c(NC(=O)C(Cl)Cl)n1`: the T/C reads like this: (dose: 25.0 mg/kg/injection, schedule: Q01DX009 (ip), vehicle: saline with Tween-80) 90 % of control; under setting [15], 107 % of control; under setting [16], 106 % of control; under setting [12], 98 % of control; under setting [17], 89 % of control; under setting [13], 104 % of control. For the same compound, the T/C is, setting by setting: under setting [18], 93 % of control; under setting [14], 94 % of control.
In the case of `C(=C\CSc1ccccc1)/CSc1ccccc1`, the T/C by setting is: under setting [19], 97 % of control; under setting [20], 94 % of control; under setting [21], 97 % of control.
As for `O=C(O)C1CC(Br)C2CC1C(=O)O2` (stereo not drawn), the T/C runs as follows: under setting [22], 91 % of control; under setting [23], 105 % of control; under setting [24], 97 % of control.
For `O=C(O)COc1ccc2ccccc2c1Cl`, the T/C was 86 % of control under setting [19], 89 % of control under setting [20] and 92 % of control under setting [21].
With `CC1CN=C(c2ccc(NC(=O)NCCCNC(=O)Nc3ccc(C4=NCC(C)N4)cc3)cc2)N1` (stereo not drawn), the T/C (dose: 30.0 mg/kg/injection, schedule: Q01DX015 (ip), vehicle: methylcellulose (MC)) is 150 % of control.
In the case of `CC(=O)SC(C)CC(=O)O` (stereo not drawn), the T/C under setting [22] is 106 % of control and the T/C under setting [23] was 101 % of control.
For the compound `O=C(/C=C/c1ccccc1)c1ccccc1`, the T/C is 98 % of control under setting [3]; 105 % of control under setting [19]; 100 % of control under setting [5]; 99 % of control under setting [6]; 105 % of control under setting [20]; 104 % of control under setting [8]. Moreover, the T/C under setting [9] was 94 % of control, the T/C under setting [21] was 94 % of control and the T/C under setting [11] is 98 % of control.
Take `CCCCCCCCCc1c(C)[nH]c2ccccc2c1=O`: the T/C by setting is: under setting [4], 94 % of control; under setting [22], 100 % of control; under setting [7], 86 % of control; under setting [23], 104 % of control; under setting [10], 86 % of control; under setting [24], 100 % of control.
In the case of `O=C(CCCBr)Nc1ccc2ccccc2c1`, the T/C by setting is: under setting [15], 98 % of control; under setting [16], 95 % of control; under setting [17], 95 % of control.
Take `Cc1cccc(NC(=O)Oc2cc(C)c(Cl)cc2C(C)C)c1`: the T/C under setting [25] is 103 % of control; the T/C under setting [16] is 95 % of control and 103 % of control; the T/C under setting [1] is 105 % of control and 108 % of control; the T/C under setting [12] was 90 % of control; the T/C under setting [26] was 104 % of control; the T/C under setting [17] was 98 % of control and 103 % of control. The T/C was 97 % of control and 87 % of control under setting [2]; 98 % of control under setting [13]; 106 % of control under setting [27]; 95 % of control and 98 % of control under setting [18]; 94 % of control and 100 % of control (dose: 400.0 mg/kg/injection, schedule: Q04DX002 (ip), vehicle: saline with Tween-80); 100 % of control under setting [14].
For `Clc1cccc2c1Cc1c(Cl)cccc1C2`, the T/C by setting is: under setting [25], 97 % of control; under setting [26], 94 % of control; under setting [27], 97 % of control.
Take `c1ccc2c(c1)ccc1cc3ccncc3cc12`: the T/C is 95 % of control and 98 % of control (dose: 100.0 mg/kg/injection, schedule: Q01DX001 (ip), vehicle: saline); 100 % of control and 106 % of control (dose: 200.0 mg/kg/injection, schedule: Q01DX001 (ip), vehicle: saline); 96 % of control (dose: 400.0 mg/kg/injection, schedule: Q01DX001 (ip), vehicle: saline).
For the compound `CC(=O)Nc1ccc(NC(C)=O)cc1`, the T/C reads like this: under setting [12], 95 % of control; under setting [13], 91 % of control; under setting [14], 95 % of control.
As to `O=C(O)CC(CS(=O)O)C(=O)O` (stereo not drawn), the T/C under setting [25] was 91 % of control.
As for `CS(=O)(=O)OCCN(CCOS(C)(=O)=O)c1ccc(C=Nc2ccc3ccccc3c2)c(Cl)c1`, the T/C under setting [5] is 103 % of control and 107 % of control; the T/C under setting [8] was 113 % of control; the T/C under setting [11] is 118 % of control.
As for `O=[As](O)(O)CCc1ccccc1`, the T/C is, setting by setting: (dose: 12.5 mg/kg/injection, schedule: Q04DX003 (ip), vehicle: Klucel (hydroxypropylcellulose) (HPC)) 101 % of control; (dose: 25.0 mg/kg/injection, schedule: Q04DX003 (ip), vehicle: Klucel (hydroxypropylcellulose) (HPC)) 108 % of control.
Turning to `Cc1cccc(C)c1OC(=O)Nc1ccccc1`, the T/C was 101 % of control under setting [19], 97 % of control under setting [20] and 101 % of control under setting [21].
